Results on eight compounds are retold here after patent US20240174634A1, “Aldehyde Dehydrogenase Inhibitors and Their Therapeutic Use” (priority 2020, published 2024).

Molecules are shown by their SMILES. Some results are limits rather than exact numbers.

For the assay, the target named is T1, ALDH1A3 (Homo sapiens, UniProt P47895).
T1 sequence (P47895 1-512): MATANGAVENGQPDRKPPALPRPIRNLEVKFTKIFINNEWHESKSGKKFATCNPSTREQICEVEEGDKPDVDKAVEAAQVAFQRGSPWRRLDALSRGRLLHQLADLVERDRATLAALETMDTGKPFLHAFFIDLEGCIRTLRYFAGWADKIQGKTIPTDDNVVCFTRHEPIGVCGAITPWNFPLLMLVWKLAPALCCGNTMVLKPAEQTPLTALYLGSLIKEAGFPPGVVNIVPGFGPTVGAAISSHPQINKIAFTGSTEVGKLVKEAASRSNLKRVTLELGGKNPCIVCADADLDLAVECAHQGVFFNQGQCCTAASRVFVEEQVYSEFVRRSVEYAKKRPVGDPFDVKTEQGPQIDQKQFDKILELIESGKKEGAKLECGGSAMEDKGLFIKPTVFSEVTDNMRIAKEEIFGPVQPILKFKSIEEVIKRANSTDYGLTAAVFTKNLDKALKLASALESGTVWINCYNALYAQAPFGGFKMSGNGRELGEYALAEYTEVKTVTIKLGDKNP
Put plainly: ALDH1A3 cellular assay (ALDEFLUOR) in WM266.4 melanoma cells. The assay is classed as cell-based. The note with it: WM266.4 cells; 60 min incubation; percentage of ALDH-positive cells. Summed up:
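WM266.4 melanoma cells, 7500 per well, incubated overnight, then 60 min at 37 °C with compound (10 μM to 0.0005 μM, 10 points) plus BAAA substrate (500 nM final), verapamil (50 μM) and Hoechst. Imaged BODIPY fluorescence per cell; EC50 from percentage of ALDH-positive cells.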
With `CN(CCOc1ccc2c(c1)CCC(=O)N2)C(CO)c1cccc(F)c1` (centres unmarked) [ALDHI-3003, 6-[2-[[1-(3-fluorophenyl)-2-hydroxy-ethyl]-methyl-amino]ethoxy]-3,4-dihydro-1H-quinolin-2-one], the IC50 lay in the range of 100 to 1000 nM. With `CCN(CC)CCN(CCOc1ccc2c(c1)CCC(=O)N2)Cc1ccccc1` [ALDHI-3004, 6-[2-[benzyl-[2-(diethylamino)ethyl]amino]ethoxy]-3,4-dihydro-1H-quinolin-2-one] the figure was < 100 nM; with `O=C1CCc2cc(OCCN(CCO)Cc3cccnc3)ccc2N1` [ALDHI-3005, 6-[2-[2-hydroxyethyl(3-pyridylmethyl)amino]ethoxy]-3,4-dihydro-1H-quinolin-2-one], 100 to 1000 nM; with `C[C@H](c1ccccc1)N(CCO)CCOc1ccc2c(c1)CCC(=O)N2` [ALDHI-3006, 6-[2-[2-hydroxyethyl-[(1R)-1-phenylethyl]amino]ethoxy]-3,4-dihydro-1H-quinolin-2-one], 100 to 1000 nM. With `C[C@@H](c1ccccc1)N(CCO)CCOc1ccc2c(c1)CCC(=O)N2` [ALDHI-3007, 6-[2-[2-hydroxyethyl-[(1S)-1-phenylethyl]amino]ethoxy]-3,4-dihydro-1H-quinolin-2-one] the figure was 100 to 1000 nM; with `CN(CCOc1ccc2c(c1)CCC(=O)N2)C(=O)c1cccc(F)c1` [ALDHI-3008, 3-fluoro-N-methyl-N-[2-[(2-oxo-3,4-dihydro-1H-quinolin-6-yl)oxy]ethyl]benzamide], 100 to 1000 nM; with `CN(CCOc1ccc2c(c1)CCC(=O)N2)Cc1cccnc1` [ALDHI-3010, 6-[2-[methyl(3-pyridylmethyl)amino]ethoxy]-3,4-dihydro-1H-quinolin-2-one], 100 to 1000 nM. `CN(CCOc1ccc2c(c1)CCC(=O)N2)C(=O)c1cccnc1` [ALDHI-3013, N-methyl-N-[2-[(2-oxo-3,4-dihydro-1H-quinolin-6-yl)oxy]ethyl]pyridine-3-carboxamide] returned an IC50 of 1000 to 10000 nM.
